Drawing on PubChem BioAssay AID1259407 (Chemical Carcinogenesis Research Information System (CCRIS), 2018), this text covers mutagenic call for 3 compounds.

Calls of active or inactive are those of the source. No rule for the calls is given here.

This data set deals with CCRIS mutagenicity, Ames/micronucleus/aberration tests. The data set can be described thus: CCRIS mutagenicity studies.
The mark [1] stands for this setting: Test System: AMES SALMONELLA TYPHIMURIUM, Strain/Indicator: TA98, Metabolic Activation: NONE, Method: STANDARD PLATE.
[2] abbreviates: Test System: AMES SALMONELLA TYPHIMURIUM, Strain/Indicator: TA100, Metabolic Activation: NONE, Method: STANDARD PLATE.
Where [3] appears, read: Test System: AMES SALMONELLA TYPHIMURIUM, Strain/Indicator: TA1538, Metabolic Activation: NONE, Method: STANDARD PLATE.

For `Nc1ccc2cc(S(=O)(=O)O)c(N=Nc3ccc(N=Nc4ccccc4)cc3OCCO)c(O)c2c1`, the mutagenic call runs as follows: under setting [1], “inactive; negative”; (Test System: AMES SALMONELLA TYPHIMURIUM, Strain/Indicator: TA98, Metabolic Activation: RAT, LIVER, S-9, AROCLOR 1254, Method: STANDARD PLATE) “active; positive”; under setting [2], “inactive; negative”; (Test System: AMES SALMONELLA TYPHIMURIUM, Strain/Indicator: TA100, Metabolic Activation: RAT, LIVER, S-9, AROCLOR 1254, Method: STANDARD PLATE) “active; positive”; under setting [3], “inactive; negative”; (Test System: AMES SALMONELLA TYPHIMURIUM, Strain/Indicator: TA1538, Metabolic Activation: RAT, LIVER, S-9, AROCLOR 1254, Method: STANDARD PLATE) “active; positive”.

On to `O=C([O-])c1ccc2ccccc2c1.[Mn+2].[O-]C(O)c1ccc2ccccc2c1`, for which the mutagenic call reads like this: (Test System: AMES SALMONELLA TYPHIMURIUM, Strain/Indicator: TA98, Metabolic Activation: HAMSTER, LIVER, S-9, AROCLOR 1254 (10%), Method: STANDARD PLATE) “inactive; negative”; under setting [1], “inactive; negative”; (Test System: AMES SALMONELLA TYPHIMURIUM, Strain/Indicator: TA98, Metabolic Activation: RAT, LIVER, S-9, AROCLOR 1254 (10%), Method: STANDARD PLATE) “inactive; negative”; (Test System: AMES SALMONELLA TYPHIMURIUM, Strain/Indicator: TA100, Metabolic Activation: HAMSTER, LIVER, S-9, AROCLOR 1254 (10%), Method: STANDARD PLATE) “inactive; negative”; under setting [2], “inactive; negative”; (Test System: AMES SALMONELLA TYPHIMURIUM, Strain/Indicator: TA100, Metabolic Activation: RAT, LIVER, S-9, AROCLOR 1254 (10%), Method: STANDARD PLATE) “inactive; negative”. Besides, the mutagenic call runs as follows: (Test System: AMES SALMONELLA TYPHIMURIUM, Strain/Indicator: TA1535, Metabolic Activation: HAMSTER, LIVER, S-9, AROCLOR 1254 (10%), Method: STANDARD PLATE) “inactive; negative”; (Test System: AMES SALMONELLA TYPHIMURIUM, Strain/Indicator: TA1535, Metabolic Activation: NONE, Method: STANDARD PLATE) “inactive; negative”; (Test System: AMES SALMONELLA TYPHIMURIUM, Strain/Indicator: TA1535, Metabolic Activation: RAT, LIVER, S-9, AROCLOR 1254 (10%), Method: STANDARD PLATE) “inactive; negative”; (Test System: AMES SALMONELLA TYPHIMURIUM, Strain/Indicator: TA1537, Metabolic Activation: HAMSTER, LIVER, S-9, AROCLOR 1254 (10%), Method: STANDARD PLATE) “inactive; negative”; (Test System: AMES SALMONELLA TYPHIMURIUM, Strain/Indicator: TA1537, Metabolic Activation: NONE, Method: STANDARD PLATE) “inactive; negative”; (Test System: AMES SALMONELLA TYPHIMURIUM, Strain/Indicator: TA1537, Metabolic Activation: RAT, LIVER, S-9, AROCLOR 1254 (10%), Method: STANDARD PLATE) “inactive; negative”. Further, the mutagenic call runs as follows: (Test System: AMES SALMONELLA TYPHIMURIUM, Strain/Indicator: TA1538, Metabolic Activation: HAMSTER, LIVER, S-9, AROCLOR 1254 (10%), Method: STANDARD PLATE) “inactive; negative”; under setting [3], “inactive; negative”; (Test System: AMES SALMONELLA TYPHIMURIUM, Strain/Indicator: TA1538, Metabolic Activation: RAT, LIVER, S-9, AROCLOR 1254 (10%), Method: STANDARD PLATE) “inactive; negative”.

`CC(CN1c2ccccc2Sc2ccccc21)N(C)C` (configuration not stated): the mutagenic call was “inactive; negative” (End Point: IN VITRO CHROMOSOMAL ABERRATIONS, Test System: CHINESE HAMSTER OVARY CELLS, Metabolic Activation: NONE); “inactive; negative” (End Point: IN VITRO CHROMOSOMAL ABERRATIONS, Test System: CHINESE HAMSTER OVARY CELLS, Metabolic Activation: RAT, LIVER, S-9, AROCLOR 1254); “inactive; negative” (Test System: AMES SALMONELLA TYPHIMURIUM, Strain/Indicator: TA97, Metabolic Activation: HAMSTER, LIVER, S-9, AROCLOR 1254 (10 OR 30%), Method: PREINCUBATION); “inactive; negative” (Test System: AMES SALMONELLA TYPHIMURIUM, Strain/Indicator: TA97, Metabolic Activation: NONE, Method: PREINCUBATION); “inactive; negative” (Test System: AMES SALMONELLA TYPHIMURIUM, Strain/Indicator: TA97, Metabolic Activation: RAT, LIVER, S-9, AROCLOR 1254 (10 OR 30%), Method: PREINCUBATION); “inactive; negative” (Test System: AMES SALMONELLA TYPHIMURIUM, Strain/Indicator: TA98, Metabolic Activation: HAMSTER, LIVER, S-9, AROCLOR 1254 (10%), Method: PREINCUBATION). The mutagenic call is, setting by setting: (Test System: AMES SALMONELLA TYPHIMURIUM, Strain/Indicator: TA98, Metabolic Activation: HAMSTER, LIVER, S-9, AROCLOR 1254 (30%), Method: PREINCUBATION) “inactive; negative”; (Test System: AMES SALMONELLA TYPHIMURIUM, Strain/Indicator: TA98, Metabolic Activation: NONE, Method: PREINCUBATION) “inactive; negative”; (Test System: AMES SALMONELLA TYPHIMURIUM, Strain/Indicator: TA98, Metabolic Activation: NONE, Method: SPOT TEST) “inactive; negative”; (Test System: AMES SALMONELLA TYPHIMURIUM, Strain/Indicator: TA98, Metabolic Activation: RAT, LIVER, S-9, AROCLOR 1254 (10%), Method: PREINCUBATION) “inactive; negative”; (Test System: AMES SALMONELLA TYPHIMURIUM, Strain/Indicator: TA98, Metabolic Activation: RAT, LIVER, S-9, AROCLOR 1254 (30%), Method: PREINCUBATION) “inactive; negative”; (Test System: AMES SALMONELLA TYPHIMURIUM, Strain/Indicator: TA100, Metabolic Activation: HAMSTER, LIVER, S-9, AROCLOR 1254 (10%), Method: PREINCUBATION) “inactive; negative”. In addition, the mutagenic call runs as follows: (Test System: AMES SALMONELLA TYPHIMURIUM, Strain/Indicator: TA100, Metabolic Activation: HAMSTER, LIVER, S-9, AROCLOR 1254 (30%), Method: PREINCUBATION) “inactive; negative”; (Test System: AMES SALMONELLA TYPHIMURIUM, Strain/Indicator: TA100, Metabolic Activation: NONE, Method: PREINCUBATION) “inactive; negative”; (Test System: AMES SALMONELLA TYPHIMURIUM, Strain/Indicator: TA100, Metabolic Activation: RAT, LIVER, S-9, AROCLOR 1254 (10%), Method: PREINCUBATION) “inactive; negative”; (Test System: AMES SALMONELLA TYPHIMURIUM, Strain/Indicator: TA100, Metabolic Activation: RAT, LIVER, S-9, AROCLOR 1254 (30%), Method: PREINCUBATION) “inactive; negative”; (Test System: AMES SALMONELLA TYPHIMURIUM, Strain/Indicator: TA1535, Metabolic Activation: HAMSTER, LIVER, S-9, AROCLOR 1254 (10%), Method: PREINCUBATION) “inactive; negative”; (Test System: AMES SALMONELLA TYPHIMURIUM, Strain/Indicator: TA1535, Metabolic Activation: HAMSTER, LIVER, S-9, AROCLOR 1254 (30%), Method: PREINCUBATION) “inactive; negative”. For the same compound, the mutagenic call (Test System: AMES SALMONELLA TYPHIMURIUM, Strain/Indicator: TA1535, Metabolic Activation: NONE, Method: PREINCUBATION) was “inactive; negative”; the mutagenic call (Test System: AMES SALMONELLA TYPHIMURIUM, Strain/Indicator: TA1535, Metabolic Activation: RAT, LIVER, S-9, AROCLOR 1254 (10%), Method: PREINCUBATION) is “inactive; negative”; the mutagenic call (Test System: AMES SALMONELLA TYPHIMURIUM, Strain/Indicator: TA1535, Metabolic Activation: RAT, LIVER, S-9, AROCLOR 1254 (30%), Method: PREINCUBATION) was “inactive; negative”; the mutagenic call (Test System: AMES SALMONELLA TYPHIMURIUM, Strain/Indicator: TA1537, Metabolic Activation: HAMSTER, LIVER, S-9, AROCLOR 1254 (10%), Method: PREINCUBATION) was “inactive; negative”; the mutagenic call (Test System: AMES SALMONELLA TYPHIMURIUM, Strain/Indicator: TA1537, Metabolic Activation: NONE, Method: PREINCUBATION) is “inactive; negative”; the mutagenic call (Test System: AMES SALMONELLA TYPHIMURIUM, Strain/Indicator: TA1537, Metabolic Activation: RAT, LIVER, S-9, AROCLOR 1254 (10%), Method: PREINCUBATION) is “inactive; negative”. Also, the mutagenic call runs as follows: (Test System: CHINESE HAMSTER V-79, Strain/Indicator: V-79/6-THIOGUANINE, Metabolic Activation: NONE) “inactive; negative”; (Test System: CHINESE HAMSTER V-79, Strain/Indicator: V-79/OUABAIN, Metabolic Activation: NONE) “inactive; negative”.
